Reference: patent publication US9192656B2, “Methods and compositions for the treatment of cancer” (QUINTESSENCE BIOSCIENCES, INC., priority 2006, dated 2015)
Positions count from the first letter of the chain named. Numbers in names are those of the source.

Assays:
[1] = tested on: non-small cell lung cancer cell line (A549); experiment: In vivo inhibition of tumor growth, A549 xenograft; design: species or system human tumor cells in nude mice; settings: for Starting volume: at start
Experimental: (§1) Cells from a non-small cell lung cancer cell line (A549) were grown in nine T175 flasks in F12K media and 10% fetal calf serum until the cells were confluent. 4.5×10^6 cells (in 100 microliters) were injected into the right rear flank of 4-5 week old male homozygous (nu/nu) nude mice (Harlan, Madison Wis.). Tumors were allowed to grow to an average size of ≧75 mm^3 before treatments were initiated. Animals of each tumor type, with the properly sized tumors, were divided into treatment groups, including one set of animals treated weekly with vehicle (phosphate buffered saline, PBS). The vehicle and the test agents were all administered by intraperitoneal injection. Each animal was weighed twice a week during treatment. The tumors were measured twice weekly using calipers. Tumor volume (mm^3) was determined by using the formula for an ellipsoid sphere:
[formula] The efficacy of wild type human RNase 1 is shown relative to cisplatin. The RNase 1 was administered at 75 mg per kg of body weight of the animal once a week (75 mg/kg 1×wk), while the cisplatin was used at 6 mg/kg once a week. The value of n represents the number of animals in the specific treatment arm of the experiment.
(§2) The percent tumor growth inhibition (% TGI) is calculated by: […]
The xenograft model of this example was set up with the human non-small cell lung cancer cell line (A549) as in the previous examples. The efficacy of wild type human RNase 1 is shown relative to tarceva. The RNase 1 was administered at 75 mg per kg of body weight of the animal (75 mg/kg 1×wk) or 150 mg/kg 1×wk. Tarceva was given orally with doses of 50 mg/kg twice a week. The value of n represents the number of animals in the specific treatment arm of the experiment.

[2] = Clinical chemistry and complete blood count plus platelets (DU145 xenograft mice); format: in vivo
Experimental: Clinical chemistry and a complete blood count (CBC) plus platelets were performed on whole blood and serum samples collected from the mice 24 hours after the last treatment of the prostate xenograft model above. […] Creatinine was also tested and found not to differ. The levels of the liver enzymes, gamma glutamyl transferase (GGT) and alanine transaminase (ALT) in all treatment groups were similar (GGT data not shown.). The values were determined for the various treatment groups of the prostate (DU145) xenograft study for clinical chemistry (A., B.), complete blood count (C., D.), and platelets (F.). Abbreviations: TCO2, amount of bicarbonate ion (HCO3^−); Anion Gap, [Na+K]—[Cl+HCO3]; ALT, alanine aminotransferase; WBC, white blood count; RBC, red blood count; HGB, hemoglobin; RBC HGB, (CHCM×RBC×MCV)/1000); MCH, mean corpuscular hemoglobin; MCHC, mean corpuscular hemoglobin concentration; RDW, red cell distribution width; MPV, mean platelet volume; HCT, hematocrit; MCV, mean corpuscular volume.

[3] = tested on: human prostate cancer cell line (DU145); experiment: In vivo inhibition of tumor growth, DU145 xenograft; design: species or system human tumor cells in nude mice; settings: Example 4, Table 8, RNase 1 75 mg/kg 1×wk, docetaxel 8 mg/kg once a week
Experimental: as §1, with “sphere: […]” for “sphere:”
as §2
This xenograft model was set up as in the previous example except that a human prostate cancer cell line (DU145) was used. The efficacy of wild type human RNase 1 is shown relative to docetaxel. The RNase 1 was administered at 75 mg per kg of body weight of the animal (75 mg/kg 1×wk), while the docetaxel was used at 8 mg/kg once a week. The value of n represents the number of animals in the specific treatment arm of the experiment.
(§3) The xenograft model of this example was set up as in the previous example except that a human prostate cancer cell line (DU145) was used. The efficacy of wild type human RNase 1 is shown. The RNase 1 was administered at 75 mg per kg of body weight of the animal once per week (75 mg/kg 1×wk). The value of n represents the number of animals in the specific treatment arm of the experiment.
as §3, with “example.” for “example except that a human prostate cancer cell line (DU145) was used.”, “three different doses: (1) 15” for “75”, “(15” for “(75”, “1×wk), (2) 75 mg/kg 1×wk, or (3) 300 mg/kg 1×wk.” for “1×wk).”

[4] = tested on: human pancreatic cancer cell line (B×PC-3); experiment: In vivo inhibition of tumor growth, BxPC-3 xenograft; design: species or system human tumor cells in nude mice; settings: Example 5, Table 9, RNase 1 15 mg/kg qd×5, gemcite 60 mg/kg twice a week
Experimental: as §1, with “sphere: […]” for “sphere:”
as §2
The xenograft model of this example was set up as in the previous example except that a human pancreatic cancer cell line (B×PC-3) was used. The efficacy of wild type human RNase 1 is shown relative to gemcite. The RNase 1 was administered at 15 mg per kg of body weight of the animal five times per week (15 mg/kg qd×5), while the gemcite was used at 60 mg/kg twice a week. The value of n represents the number of animals in the specific treatment arm of the experiment.
as §3, with “pancreatic” for “prostate”, “(B×PC-3)” for “(DU145)”, “three different doses: (1) 30” for “75”, “(30” for “(75”, “1×wk), (2) 75 mg/kg 1×wk, or (3) 150 mg/kg 1×wk.” for “1×wk).”

[5] = tested on: human breast cancer cell line (MDA-MB-231); experiment: In vivo inhibition of tumor growth, MDA-MB-231 xenograft; design: species or system human tumor cells in nude mice; settings: Example 10, Table 14, female mice, RNase 1 75 mg/kg 1×wk, doxorubicin 3 mg/kg once per week
Experimental: as §1, with “sphere: […]” for “sphere:”
as §2
The xenograft model of this example was set up as in the previous example except that a human breast cancer cell line (MDA-MB-231) and female mice were used. The efficacy of wild type human RNase 1 is shown relative to doxorubicin. The RNase 1 was administered at 75 mg per kg of body weight of the animal once per week (75 mg/kg 1×wk), while the doxorubicin was given at 3 mg/kg once per week. The value of n represents the number of animals in the specific treatment arm of the experiment.

[6] = tested on: non-small cell lung cancer; experiment: Xenograft models of non-small cell lung cancer (RNase 1 variants); format: in vivo, mice; settings: for (Final − start)/Control: relative to vehicle; for Starting volume: tumor volume at start; for tumor growth inhibition (in words): xenograft model of non-small cell lung cancer
Experimental: as §1, with “sphere: […]” for “sphere:”
as §2

[7] = Example 6, Table 10, orally 50 mg/kg twice a week
[8] = Example 3, Table 7, i.p., RNase 1 75 mg/kg 1×wk, cisplatin 6 mg/kg once a week

C#Cc1cccc(Nc2ncnc3cc(OCCOC)c(OCCOC)cc23)c1 [Tarceva, N-(3-ethynylphenyl)-6,7-bis(2-methoxyethoxy)quinazolin-4-amine, reference compound]
% TGI [1, 7]: 77% | (Final − start) [1, 7]: 181 mm^3 | (Final − start)/Control [1, 7]: 0.23 | Final volume [1, 7]: 265 mm^3 | Starting volume [1, 7]: 84 mm^3

CC(=O)O[C@@]12CO[C@@H]1C[C@H](O)[C@@]1(C)C(=O)[C@H](O)C3=C(C)[C@@H](OC(=O)[C@H](O)[C@@H](NC(=O)OC(C)(C)C)c4ccccc4)C[C@@](O)([C@@H](OC(=O)c4ccccc4)[C@H]21)C3(C)C [Docetaxel, (2R,3S)-N-carboxy-3-phenylisoserine, N-tert-butyl ester, 13-ester with 5b-20-epoxy-12a,4,7b,10b,13a-hexahydroxytax-11-en-9-one 4-acetate 2-benzoate, trihydrate, reference compound]
Creatinine versus vehicle ([2]; 24 hours after the last treatment): not to differ | Clinical chemistry and complete blood count plus platelets, all tests, versus vehicle ([2]; whole blood and serum 24 hours after the last treatment, Mann-Whitney U test): not to be significantly different | % TGI [3]: 92% | (Final − start) [3]: 180 mm^3 | (Final − start)/Control [3]: 0.08 | Final volume [3]: 249 mm^3 | Starting volume ([3]; at start): 60 mm^3

Nc1ccn([C@@H]2O[C@H](CO)[C@@H](O)C2(F)F)c(=O)n1 [Gemcite, reference compound]
% TGI [4]: 60% | (Final − start) [4]: 427 mm^3 | (Final − start)/Control [4]: 0.40 | Final volume [4]: 505 mm^3 | Starting volume ([4]; at start): 78 mm^3

COc1cccc2c1C(=O)c1c(O)c3c(c(O)c1C2=O)C[C@@](O)(C(=O)CO)C[C@@H]3O[C@H]1C[C@H](N)[C@H](O)[C@H](C)O1 [doxorubicin, reference compound]
% TGI [5]: 84% | (Final − start) [5]: 22 mm^3 | (Final − start)/Control [5]: 0.16 | Final volume [5]: 86 mm^3 | Starting volume ([5]; at start): 64 mm^3

N.N.[Cl][Pt][Cl] [cisplatin, Cisplatin, reference compound]
% TGI [1, 8]: 81% | (Final − start) [1, 8]: 58 mm^3 | (Final − start)/Control [1, 8]: 0.19 | Final volume [1, 8]: 130 mm^3 | Starting volume [1, 8]: 72 mm^3 | % TGI ([6]; Table 2, FIG. 1): 68% | (Final − start) ([6]; Table 2, FIG. 1): 290 mm^3 | Final volume ([6]; Table 2, FIG. 1): 369 mm^3 | (Final − start)/Control ([6]; Table 2, FIG. 1): 0.32 | Starting volume ([6]; Table 2, FIG. 1): 79 mm^3

B1: G38R/R39D/L86E/N88R/G89D/R91D RNase 1: variant of human RNase 1 with substitutions G38R, R39D, L86E, N88R, G89D, R91D (protein)
chain: KESRAKKFQRQHMDSDSSPSSSSTYCNQMMRRRNMTQRDCKPVNTFVHEPLVDVQNVCFQEKVTCKNGQGNCYKSNSSMHITDCRETRDSDYPNCAYRTSPKERHIIVACEGSPYVPVHFDASVEDST
% TGI ([6]; Table 2, FIG. 1): 28% | (Final − start) ([6]; Table 2, FIG. 1): 647 mm^3 | Final volume ([6]; Table 2, FIG. 1): 723 mm^3 | (Final − start)/Control ([6]; Table 2, FIG. 1): 0.72 | Starting volume ([6]; Table 2, FIG. 1): 76 mm^3 | tumor growth inhibition (in words) [6]: displayed tumor growth inhibition

B2: L86E/N88R/G89D/R91D RNase 1: variant of human RNase 1 with substitutions L86E, N88R, G89D, R91D (protein)
chain: B1 chain with R38G, D39R
% TGI ([6]; Table 2, FIG. 1): 40% | (Final − start) ([6]; Table 2, FIG. 1): 540 mm^3 | Final volume ([6]; Table 2, FIG. 1): 624 mm^3 | (Final − start)/Control ([6]; Table 2, FIG. 1): 0.60 | Starting volume ([6]; Table 2, FIG. 1): 84 mm^3 | tumor growth inhibition (in words) [6]: displayed tumor growth inhibition

B3: R4C/G38R/R39D/L86E/N88R/G89D/R91D/V118C RNase 1: variant of human RNase 1 with substitutions R4C, G38R, R39D, L86E, N88R, G89D, R91D, V118C (protein)
chain: B1 chain with R4C, V118C
% TGI ([6]; Table 3, FIG. 2): 48% | (Final − start) ([6]; Table 3, FIG. 2): 1022 mm^3 | Final volume ([6]; Table 3, FIG. 2): 1130 mm^3 | (Final − start)/Control ([6]; Table 3, FIG. 2): 0.52 | Starting volume ([6]; Table 3, FIG. 2): 108 mm^3 | tumor growth inhibition (in words) [6]: impacted tumor growth

B4: R4C/K7A/G38R/R39D/L86E/N88R/G89D/R91D/V118C RNase 1: variant of human RNase 1 with substitutions R4C, K7A, G38R, R39D, L86E, N88R, G89D, R91D, V118C (protein)
chain: B1 chain with R4C, K7A, V118C
% TGI ([6]; Table 4, FIG. 3): 36% | (Final − start) ([6]; Table 4, FIG. 3): 478 mm^3 | Final volume ([6]; Table 4, FIG. 3): 552 mm^3 | (Final − start)/Control ([6]; Table 4, FIG. 3): 0.36 | Starting volume ([6]; Table 4, FIG. 3): 74 mm^3 | tumor growth inhibition (in words) [6]: demonstrated measurable tumor growth inhibition
